From patent publication US9896441B2 (Lycera Corporation, priority 2014, dated 2018)

Target: T1, RORγ-LBD (Homo sapiens, UniProt P51449)
T1 construct: made in house; host or cells: SF9 cells (baculovirus); used as diluted lysate
T1 sequence (P51449 269-508 limits assumed): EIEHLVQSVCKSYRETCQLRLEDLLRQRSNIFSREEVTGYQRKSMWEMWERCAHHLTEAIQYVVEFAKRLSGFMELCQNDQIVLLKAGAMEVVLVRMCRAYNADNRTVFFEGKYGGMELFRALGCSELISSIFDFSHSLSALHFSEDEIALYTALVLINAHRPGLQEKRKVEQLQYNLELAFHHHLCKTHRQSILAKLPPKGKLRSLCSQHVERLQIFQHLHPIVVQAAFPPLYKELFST
Assay: RORγ-Ligand Binding Domain (LBD) TR-FRET Assay;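 on TR-FRET Assay Max Response: 665/615 nm signal ratio set to 100 without ursolic acid or test compound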
Format: biochemical
Method: Assay procedures and results are described below.
HIS-tagged RORγ-LBD protein was expressed in SF9 cells using a baculovirus expression system. The lysate was diluted in assay buffer (50 mM Tris pH 7.0, 50 mM KCl, 1 mM EDTA, 0.1 mM DTT, 0.01% BSA) to obtain RORγ-LBD final concentration of ˜3 nM in a 384-well assay plate (need to titrate for each batch of protein).
A stock of biotinylated-LXXLL peptide from coactivator SRC1 (Biotin-[…]) was prepared in assay buffer and added to each well (200 nM final concentration). […] RORγ antagonist ursolic acid was also included at a final concentration of 2 μM. Compounds were diluted in DMSO and further diluted in assay buffer with a final DMSO concentration at 1%.

[1] = with 2 μM ursolic acid (RORγ antagonist), highest test concentration 10 μM

| Compound | EC50 [1] [nM] | EC50 (RORγ-LBD TR-FRET) [nM] | further results |
| --- | --- | --- | --- |
| CCn1cc(S(=O)(=O)N2C[C@H](CNC(C)=O)Nc3ccc(NCc4c(F)cccc4Cl)cc32)c(Cl)n1 | < 500 | – | – |
| CCn1cc(S(=O)(=O)N2CC(C(=O)O)Cc3ccc(/C=C(\C)c4c(F)cccc4Cl)cc32)c(Cl)n1 (stereo not shown) | < 500 | – | – |
| CCn1cc(S(=O)(=O)N2CC(C(=O)O)Oc3ccc(OCc4c(F)cccc4Cl)cc32)c(Cl)n1 (stereo not shown) | < 500 | – | – |
| CCOc1nn(CC)cc1S(=O)(=O)N1CC(CO)Cc2ccc(OCc3c(F)cccc3Cl)cc21 (stereo not shown) | < 500 | – | – |
| COc1cc(S(=O)(=O)N2CCCc3ccc(O[C@@H]4c5ccccc5C[C@@H]4C)cc32)ccc1F (relative stereo) [Example 25D, 1-((4-fluoro-3-methoxyphenyl)sulfonyl)-7-(((cis)-2-methyl-2,3-dihydro-1H-inden-1-yl)oxy)-1,2,3,4-tetrahydroquinoline] | – | < 500 | – |
| CCOC(=O)C(C)(C)CC1C[C@H](S(=O)(=O)c2cccc(C(F)(F)F)c2)c2cc(/C=C(\C)c3c(F)cccc3Cl)ccc2O1 (stereo in doubt) [Example 186L, ethyl 3-((2S,4S)-6-((E)-2-(2-chloro-6-fluorophenyl)prop-1-en-1-yl)-4-((3-(trifluoromethyl)phenyl)-sulfonyl)chroman-2-yl)-2,2-dimethylpropanoate] | – | – | EC50 (RORγ-LBD TR-FRET assay): < 500 nM; TR-FRET Assay Max Response (RORγ-LBD TR-FRET assay, maximum response): *** (a value in the range of greater than 150 to 200) |
| Cc1nn(C(F)F)cc1S(=O)(=O)N1CC(CO)Cc2ccc(OCc3c(F)cccc3Cl)cc21 (stereo not shown) [Example 9D] | – | < 500 | – |
| CCOC(=O)C1Cc2ccc(OCc3c(F)cccc3Cl)cc2N(S(=O)(=O)c2cn(CC)nc2Cl)C1 (stereo not shown) [Example 9E, ethyl 1-((3-chloro-1-ethyl-1H-pyrazol-4-yl)sulfonyl)-7-((2-chloro-6-fluorobenzyl)oxy)-1,2,3,4-tetrahydroquinoline-3-carboxylate] | – | < 500 | – |
| COc1cc(S(=O)(=O)N2CCCc3ccc(OCc4c(F)cccc4Cl)cc32)ccc1F [Example 24, 7-((2-Chloro-6-fluorobenzyl)oxy)-1-((4-fluoro-3-methoxyphenyl)sulfonyl)-1,2,3,4-tetrahydroquinoline] | – | < 500 | – |
| COc1cc(S(=O)(=O)N2CCCc3ccc(O[C@H]4CCc5ccccc54)cc32)ccc1F [Example 25A, (S)-7-((2,3-dihydro-1H-inden-1-yl)oxy)-1-((4-fluoro-3-methoxyphenyl)sulfonyl)-1,2,3,4-tetrahydroquinoline] | – | < 500 | – |
| COc1cc(S(=O)(=O)N2CCCc3ccc(O[C@@H]4CCc5ccccc54)cc32)ccc1F [Example 25B, (R)-7-((2,3-dihydro-1H-inden-1-yl)oxy)-1-((4-fluoro-3-methoxyphenyl)sulfonyl)-1,2,3,4-tetrahydroquinoline] | – | < 500 | – |
| O=S(=O)(c1cccc(C(F)(F)F)c1)N1CCCc2cc(OC3CCCCC3)ccc21 [Example 25L, 6-(cyclohexyloxy)-1-((3-(trifluoromethyl)phenyl)sulfonyl)-1,2,3,4-tetrahydroquinoline] | – | < 500 | – |
| O=S(=O)(c1cccc(C(F)(F)F)c1)N1CCCc2cc(OCC3CCCCC3)ccc21 [Example 25M, 6-(cyclohexylmethoxy)-1-((3-(trifluoromethyl)phenyl)sulfonyl)-1,2,3,4-tetrahydroquinoline] | – | < 500 | – |
| O=S(=O)(c1cccc(C(F)(F)F)c1)N1CCCc2cc(OCCc3ccccc3)ccc21 [Example 25N, 6-phenethoxy-1-((3-(trifluoromethyl)phenyl)sulfonyl)-1,2,3,4-tetrahydroquinoline] | – | < 500 | – |
| COc1cc(S(=O)(=O)N2CCCc3cc(OCc4c(F)cccc4Cl)ccc32)ccc1F [Example 25O, 6-((2-chloro-6-fluorobenzyl)oxy)-1-((4-fluoro-3-methoxyphenyl)sulfonyl)-1,2,3,4-tetrahydroquinoline] | – | < 500 | – |
| COc1cc(S(=O)(=O)N2CCCc3ccc(OCc4c(Cl)cccc4C4CC4)cc32)ccc1F [Example 25S, 7-((2-chloro-6-cyclopropylbenzyl)oxy)-1-((4-fluoro-3-methoxyphenyl)sulfonyl)-1,2,3,4-tetrahydroquinoline] | – | < 500 | – |
| COc1cc(S(=O)(=O)N2CCCc3ccc(OCc4c(F)cccc4C4CC4)cc32)ccc1F [Example 25T, 7-((2-cyclopropyl-6-fluorobenzyl)oxy)-1-((4-fluoro-3-methoxyphenyl)sulfonyl)-1,2,3,4-tetrahydroquinoline] | – | < 500 | – |
| O=S(=O)(c1cccc(C(F)(F)F)c1)N1CCCc2cc(O[C@@H]3CCc4ccccc43)ccc21 [Example 25U, (R)-6-((2,3-dihydro-1H-inden-1-yl)oxy)-1-((3-(trifluoromethyl)-phenyl)sulfonyl)-1,2,3,4-tetrahydroquinoline] | – | > 10000 | – |
| O=S(=O)(c1cccc(C(F)(F)F)c1)N1CCCc2cc(O[C@H]3CCc4ccccc43)ccc21 [Example 25V, (S)-6-((2,3-dihydro-1H-inden-1-yl)oxy)-1-((3-(trifluoromethyl)-phenyl)sulfonyl)-1,2,3,4-tetrahydroquinoline] | – | 500 to 5000 | – |
| O=S(=O)(c1cccc(C(F)(F)F)c1)N1CCCc2cc(C3CC3)c(OCc3c(F)cccc3C3CC3)cc21 [Example 28C] | – | < 500 | – |
| CCn1cc(S(=O)(=O)N2C[C@H](CNC(C)=O)Oc3ccc(NCc4c(F)cccc4Cl)cc32)c(OCCO)n1 [Example 28E] | – | < 500 | – |
| CCOc1nn(CC)cc1S(=O)(=O)N1C[C@H](CNC(C)=O)Oc2ccc(NCc3c(F)cccc3Cl)cc21 [Example 28G] | – | < 500 | – |
| C/C(=C\c1ccc2c(c1)N(S(=O)(=O)c1cc(C3CC3)cnc1OCCO)C[C@H](CCC(=O)O)O2)c1c(F)cccc1Cl [Example 86BC, (S,E)-3-(6-(2-(2-chloro-6-fluorophenyl)prop-1-en-1-yl)-4-((5-cyclopropyl-2-(2-hydroxyethoxy)pyridin-3-yl)sulfonyl)-3,4-dihydro-2H-benzo[b][1,4]oxazin-2-yl)propanoic acid] | < 500 | – | – |

More lines, main results first:

| EC50 [1] [nM] | EC50 (RORγ-LBD TR-FRET) [nM] | Compound | further results |
| --- | --- | --- | --- |
| > 10000 | – | O=C(O)C1Cc2ccc(OCc3ccc4ccccc4c3)cc2N(S(=O)(=O)c2cccc(C(F)(F)F)c2)C1 (stereo not shown) | – |
| > 10000 | – | CC(C)(C)c1ccc(COc2ccc3c(c2)N(S(=O)(=O)c2cccc(C(F)(F)F)c2)CC(C(=O)O)C3)cc1 (stereo not shown) | – |
| 5000 to 10000 | – | O=C(O)C1Cc2ccc(OCc3ccc(C(F)(F)F)c(F)c3)cc2N(S(=O)(=O)c2cccc(C(F)(F)F)c2)C1 (stereo not shown) | – |
| > 10000 | – | Cc1ccc(COc2ccc3c(c2)N(S(=O)(=O)c2cccc(C(F)(F)F)c2)CC(C(=O)O)C3)cc1F (stereo not shown) | – |
| < 500 | – | O=C(O)C1Cc2ccc(OCc3c(Cl)cccc3Cl)cc2N(S(=O)(=O)c2cccc(C(F)(F)F)c2)C1 (stereo not shown) | – |
| < 500 | – | O=C(O)C1Cc2ccc(OCc3cc(F)ccc3Cl)cc2N(S(=O)(=O)c2cccc(C(F)(F)F)c2)C1 (stereo not shown) | – |
| < 500 | – | O=C(O)C1Cc2ccc(OCc3cc(C(F)(F)F)ccc3F)cc2N(S(=O)(=O)c2cccc(C(F)(F)F)c2)C1 (stereo not shown) | – |
| < 500 | – | O=C(O)C1Cc2ccc(OCc3ccccc3F)cc2N(S(=O)(=O)c2cccc(C(F)(F)F)c2)C1 (stereo not shown) | – |
| < 500 | – | O=C(O)C[C@H]1CN(S(=O)(=O)c2cccc(C(F)(F)F)c2)c2cc(NCc3c(F)cccc3Cl)ccc2O1 | – |
| < 500 | – | CC(=O)NC[C@H]1CN(S(=O)(=O)c2cccc(C(F)(F)F)c2)c2cc(NCc3c(F)cccc3Cl)ccc2O1 | – |
| < 500 | – | COC(=O)C[C@H]1CN(S(=O)(=O)c2cccc(C(F)(F)F)c2)c2cc(NCc3c(F)cccc3Cl)ccc2O1 | – |
| < 500 | – | O=C(O)C1Cc2ccc(OCc3c(F)cccc3C(F)(F)F)cc2N(S(=O)(=O)c2cccc(C(F)(F)F)c2)C1 (stereo not shown) | – |
| 500 to 5000 | – | Cc1nn(C(F)F)cc1S(=O)(=O)N1CC(C(=O)O)Cc2ccc(OCc3c(F)cccc3Cl)cc21 (stereo not shown) | – |
| < 500 | – | COc1cc(S(=O)(=O)N2CC(C(=O)O)Cc3ccc(OCc4c(F)cccc4Cl)cc32)ccc1F (stereo not shown) | – |
| < 500 | – | COc1cc(S(=O)(=O)N2CC(CO)Cc3ccc(OCc4c(F)cccc4Cl)cc32)ccc1F (stereo not shown) | – |
| < 500 | – | O=S(=O)(c1cccc(C(F)(F)F)c1)N1CC(CO)Cc2ccc(OCc3c(F)cccc3Cl)cc21 (stereo not shown) | – |
| – | < 500 | COc1cc(S(=O)(=O)N2c3cc(OCc4c(F)cccc4Cl)ccc3C[C@@H](C(=O)O)[C@H]2C)ccc1F (racemic) [Example 21, (2R,3R)-7-((2-Chloro-6-fluorobenzyl)oxy)-1-((4-fluoro-3-methoxyphenyl)sulfonyl)-2-methyl-1,2,3,4-tetrahydroquinoline-3-carboxylic acid] | – |
| – | < 500 | O=S(=O)(c1cccc(C(F)(F)F)c1)N1CCCc2cc(OCc3ccccc3)ccc21 [Example 25K, 6-(benzyloxy)-1-((3-(trifluoromethyl)phenyl)sulfonyl)-1,2,3,4-tetrahydroquinoline] | – |
| – | < 500 | O=S(=O)(c1cccc(C(F)(F)F)c1)N1CCCc2cc(Cl)c(OCc3c(F)cccc3Cl)cc21 [Example 28A] | – |
| – | < 500 | O=S(=O)(c1cccc(C(F)(F)F)c1)N1CCCc2cc(C3CC3)c(OCc3c(F)cccc3Cl)cc21 [Example 28B] | – |
| – | < 500 | Cc1cc2c(cc1OCc1c(F)cccc1Cl)N(S(=O)(=O)c1cccc(C(F)(F)F)c1)CCC2 [Example 28D] | – |
| – | < 500 | O=S(=O)(c1cccc(C(F)(F)F)c1)N1CCCc2cc(Br)c(OCc3c(F)cccc3Cl)cc21 [Example 28F] | – |
